Results published in article PMC8373983, “Effect of salinity on the zinc(II) binding efficiency of siderophore functional groups and implications for salinity tolerance mechanisms in barley” (Scientific Reports, 2021).

Test: Zinc(II) hydrolysis constants, potentiometric titration in NaCl
Type: physicochemical
Details: T = 298.1 K
Protocol: A 30 ml solution containing each ligand ([L] = 5 – 10 mM), NaCl and HCl was titrated with standard NaOH solutions. For the zinc(II)/ligand systems, the titrant solutions consisted of different amounts of ligand ([L] = 5 − 10 mM), zinc(II) ([Zn] = 0.5—5 mM) and a suitable amount of HCl and NaCl. All the measurements were carried out with an excess of the ligand, with respect to zinc(II) and at different zinc(II):ligand molar ratios. The selection of ratios investigated was determined by simulating titrations using Hyperquad Simulation and Speciation computer software (HySS)[41]. [Zn] and [L] were negligible compared to the background electrolyte concentrations. […] To account for the influence of zinc(II) hydrolysis in the zinc(II)/ligand systems, zinc(II) titrations were carried out separately at each ionic strength to determine the hydroxide constants so that these constants could be included in the equilibrium model used to refine the titration data. In these titrations, the zinc(II) concentration in the analyte solution was 0.7 mM.
The software program Hyperquad was used to determine the equilibrium model and to calculate pKa and stability constants from the potentiometric data set[43]. For each set of pKa constants or zinc(II):ligand ratio studied, at least two repeat titrations were performed. The titration curves for each system were treated as a single set when refining the stability constants. This meant that the refinement procedure was run on both curves at the same time to derive a single set of constants. The error reported on the stability constants is the standard deviation given in the Hyperquad output file. Examples of Hyperquad files for the zinc(II)/PYR system are provided on the Zenodo repository (https://doi.org/10.5281/zenodo.4641710).

log β, Zn2+ + 2OH- = [Zn(OH)2] (0.05 M NaCl): 15.40±0.06
log β, Zn2+ + 3OH- = [Zn(OH)3]- (0.05 M NaCl): 25.16±0.09
log β, Zn2+ + 2OH- = [Zn(OH)2] (0.15 M NaCl): 15.76±0.01
log β, Zn2+ + 3OH- = [Zn(OH)3]- (0.15 M NaCl): 26.15±0.04
log β, Zn2+ + 2OH- = [Zn(OH)2] (0.30 M NaCl): 15.77±0.01
log β, Zn2+ + 3OH- = [Zn(OH)3]- (0.30 M NaCl): 26.10±0.03
log β, Zn2+ + 2OH- = [Zn(OH)2] (0.70 M NaCl): 15.93±0.01
log β, Zn2+ + 3OH- = [Zn(OH)3]- (0.70 M NaCl): 26.51±0.04
log β, Zn2+ + 2OH- = [Zn(OH)2] (1.00 M NaCl): 16.05±0.01
log β, Zn2+ + 3OH- = [Zn(OH)3]- (1.00 M NaCl): 26.56±0.03
Structure (SMILES): [Cl-].[Cl-].[Zn+2] [Zinc(II), ZnCl2]
